From patent US12532883B2, “Powder compositions comprising salts of C4 to C10 oxocarboxylic acids and of unsaturated or aromatic C6 to C10 carboxylic acids” (Cosphatec GmbH, priority 2019, dated 2026)
≈ marks a conversion by molar mass, not a printed value. Where two headings read alike, the source gives them in different places.

Key:
Staphylococcus aureus = conditions: cited from earlier work
Candida albicans = conditions: cited from earlier work
Pseudomonas aeruginosa = conditions: cited from earlier work
Escherichia coli = conditions: cited from earlier work
Solubility = type: physicochemical; conditions: for solubility: 20° C.
[1] = 20° C., Echa Registration Dossier; cited from earlier work
Aspergillus brasiliensis = conditions: cited from earlier work
Hygroscopicity = type: physicochemical

water solubility (in words) (Solubility; water) | solubility (Solubility; organic solvent or mixture, ethanol, read-out: solubility in ethanol) | solubility (Solubility; water, read-out: solubility in water) | hygroscopicity (in words) (Hygroscopicity) | SMILES | MIC (Staphylococcus aureus) | MIC (Candida albicans) | MIC (Pseudomonas aeruginosa) | MIC (Escherichia coli) | solubility in water [1] | MIC (Aspergillus brasiliensis)
good water solubility | – | – | – | CC(=O)CCC(=O)O [levulinic acid, 4-oxovaleric acid] | 0.35% | 0.60% | 0.15% | 0.20% | – | –
low water solubility | 50000 µg/mL (≈ 329000 µM) | 300 µg/mL (≈ 1970 µM) | – | COc1ccc(C(=O)O)cc1 [p-methoxybenzoic acid] | 0.08% | 0.04% | 0.16% | 0.16% | 200 µg/mL (≈ 1310 µM) | 0.0025%
– | – | – | non-hygroscopic | COc1ccc(C(=O)[O-])cc1.[Na+] [p-methoxybenzoate salt, sodium p-methoxybenzoate] | – | – | – | – | – | –
– | – | – | highly hygroscopic | CC(=O)CCC(=O)[O-].[Na+] [sodium levulinate] | – | – | – | – | – | –
